Laboratory results reported in patent publication US9067937B2 (priority 2012, dated 2015).
Counter-ions that a name gives are not always drawn.

How the values were obtained:
HT1197 cells = experiment: Cell-based assay, anti-proliferative activity, MELK-negative control (Cell Counting Kit-8, 72 hours); design: species or system human; details: Homo sapiens, HT1197, 72 h, read-out: IC50 (μM) (HTll97)
Protocol: (§1) 100 micro-L of cell suspension was seeded onto 96-well microtiter plate (ViewPlate-96FTC, PerkinElmer). The initial cell concentration of 22Rv1, T47D, A549, DU4475, and HT1197 were 3,000 cells/well, 2,000 cells/well and 2,500 cells/well, respectively. Cellular growth was determined using Cell Counting Kit-8 (DOJINDO) at 72 hours after the exposure of the candidate inhibitors. […] Accurate IC50 values were calculated as described previously.

MELK = MELK (Homo sapiens, UniProt Q14680); experiment: Kinase assay (IMAP fluorescence polarization, FITC-labeled histone H3 peptide); assay type: biochemical; details: 50 micro-M ATP
Protocol: MELK activity was determined in the presence or absence of compounds using fluorescein isothiocyanate-labeled (FITC-labeled) histone H3 peptide as a substrate. […] The serially diluted compounds, 0.8 ng/micro-L […] (Carna Biosciences) and 100 nM FITC-labeled histone H3 peptide were reacted in a reaction buffer (20 mM HEPES, 0.01% Tween-20, 0.3 mM MgCl2, 2 mM dithiothreitol, 50 micro-M ATP, pH 7.4) at room temperature for 1 hour. The reaction was stopped by the addition of three fold assay volume of progressive binding solution. […] IC50 values were calculated by nonlinear four parameter fit using SigmaPlot, version 10.0 (Systat Software, Inc.).

22Rv1 cells = experiment: Cell-based assay, anti-proliferative activity (Cell Counting Kit-8, 72 hours); design: species or system human; details: Homo sapiens, 22Rv1, 72 h, read-out: IC50 (μM) (22Rvl)
Protocol: as §1, with “Active candidate inhibitors against MELK were evaluated for their target-specific cytotoxicity using 22Rv1, T47D, A549, DU4475 and HT-1197 cells was used for negative control. 100” for “100”

T47D cells = experiment: as above; design: species or system human; details: Homo sapiens, T47D, 72 h, read-out: IC50 (μM) (T47D)
Protocol: as §1, with “Active candidate inhibitors against MELK were evaluated for their target-specific cytotoxicity using 22Rv1, T47D, A549, DU4475 and HT-1197 cells was used for negative control. 100” for “100”

A549 cells = experiment: as above; design: species or system human; details: Homo sapiens, A549, 72 h, read-out: IC50 (μM) (A549)
Protocol: as §1, with “Active candidate inhibitors against MELK were evaluated for their target-specific cytotoxicity using 22Rv1, T47D, A549, DU4475 and HT-1197 cells was used for negative control. 100” for “100”

DU4475 cells = experiment: as above; design: species or system human; details: Homo sapiens, DU-4475, 72 h, read-out: IC50 (μM) (DU4475)
Protocol: as §1, with “Active candidate inhibitors against MELK were evaluated for their target-specific cytotoxicity using 22Rv1, T47D, A549, DU4475 and HT-1197 cells was used for negative control. 100” for “100”

MELK, sequence (Q14680 whole entry, looked up): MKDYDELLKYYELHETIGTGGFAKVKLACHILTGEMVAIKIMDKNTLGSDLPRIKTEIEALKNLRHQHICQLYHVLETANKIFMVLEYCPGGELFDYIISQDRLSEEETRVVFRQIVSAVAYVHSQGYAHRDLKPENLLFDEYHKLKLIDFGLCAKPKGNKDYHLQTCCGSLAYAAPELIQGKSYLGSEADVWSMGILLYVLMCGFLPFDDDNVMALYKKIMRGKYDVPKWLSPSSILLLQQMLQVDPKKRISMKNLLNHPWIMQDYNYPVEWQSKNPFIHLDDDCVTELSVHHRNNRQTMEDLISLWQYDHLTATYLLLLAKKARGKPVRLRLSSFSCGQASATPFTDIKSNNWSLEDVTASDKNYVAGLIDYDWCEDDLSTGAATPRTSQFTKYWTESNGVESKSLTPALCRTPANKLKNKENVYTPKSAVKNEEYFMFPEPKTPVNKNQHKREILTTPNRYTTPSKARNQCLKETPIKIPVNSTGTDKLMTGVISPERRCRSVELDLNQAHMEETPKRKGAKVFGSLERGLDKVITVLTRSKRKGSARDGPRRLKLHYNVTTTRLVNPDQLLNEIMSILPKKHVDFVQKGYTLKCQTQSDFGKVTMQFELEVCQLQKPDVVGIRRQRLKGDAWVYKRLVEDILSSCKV

Row | Structure (SMILES) | IC50 (HT1197 cells) | IC50 (MELK) | IC50 (22Rv1 cells) | IC50 (T47D cells) | IC50 (A549 cells) | IC50 (DU4475 cells)
1 | CN(C)C[C@H]1CC[C@H](Nc2c(S(C)(=O)=O)cnc3ccc(-c4cc(Cl)c(O)c(Cl)c4)nc23)CC1 [Example 12, 2,6-Dichloro-4-(8-{trans-4-[(dimethylamino)methyl]cyclohexylamino}-7-(methylsulfonyl)-1,5-naphthyridin-2-yl)phenol dihydrochloride] | 0.46 µM | 0.001 µM | 0.019 µM | 0.019 µM | 0.053 µM | 0.0045 µM
2 | CN(C)C[C@H]1CC[C@H](Nc2c(S(C)(=O)=O)cnc3ccc(-c4cc(F)c(O)c(Cl)c4)nc23)CC1 [Example 13, 6-(3-Chloro-5-fluoro-4-hydroxyphenyl)-4-({trans-4-[(dimethylamino)methyl]cyclohexyl}-amino)-3-methylsulfonyl-1,5-naphthyridine dihydrochloride] | 0.32 µM | 0.0014 µM | 0.019 µM | 0.013 µM | 0.073 µM | 0.0068 µM
3 | COc1cc(-c2ccc3ncc(S(C)(=O)=O)c(N[C@H]4CC[C@H](CN(C)C)CC4)c3n2)cc(Cl)c1O [Example 14, 6-(3-Chloro-4-hydroxy-5-methoxyphenyl)-4-{trans-4-[(dimethylamino)methyl]-cyclohexylamino}-3-methylsulfonyl-1,5-naphthyridine-dihydrochloride] | 0.14 µM | 0.0009 µM | 0.05 µM | 0.027 µM | 0.033 µM | 0.0096 µM
4 | CN(C)[C@H]1CC[C@H](Nc2c(S(C)(=O)=O)cnc3ccc(-c4cc(Cl)c(O)c(Cl)c4)nc23)CC1 [Example 15, 2,6-Dichloro-4-{8-[trans-4-(dimethylamino)cyclohexylamino]-7-(methylsulfonyl)-1,5-naphthyridin-2-yl}phenol dihydrochloride] | 2.2 µM | 0.0005 µM | 0.026 µM | 0.018 µM | 0.092 µM | 0.0027 µM
5 | CN(C)Cc1ccc(Nc2c(S(C)(=O)=O)cnc3ccc(-c4cc(Cl)c(O)c(Cl)c4)nc23)cc1 [Example 16, 2,6-Dichloro-4-(8-{4-[(dimethylamino)methyl]phenylamino}-7-(methylsulfonyl)-1,5-naphthyridin-2-yl)phenol dihydrochloride] | 4.4 µM | 0.0028 µM | 0.17 µM | 0.078 µM | 0.47 µM | 0.031 µM
6 | CN(C)Cc1ccc(Nc2c(S(C)(=O)=O)cnc3ccc(-c4cc(F)c(O)c(Cl)c4)nc23)cc1 [Example 17, 2-Chloro-4-(8-{4-[(dimethylamino)methyl]phenylamino}-7-(methylsulfonyl)-1,5-naphthyridin-2-yl)-6-fluorophenol dihydrochloride] | 6.6 µM | 0.0081 µM | 0.33 µM | 0.13 µM | 0.83 µM | 0.064 µM
7 | COc1cc(-c2ccc3ncc(S(C)(=O)=O)c(Nc4ccc(CN(C)C)cc4)c3n2)cc(Cl)c1O [Example 18, 2-Chloro-4-(8-{4-[(dimethylamino)methyl]phenylamino}-7-(methylsulfonyl)-1,5-naphthyridin-2-yl)-6-methoxyphenol dihydrochloride] | 3.8 µM | 0.005 µM | 1 µM | 0.32 µM | 0.69 µM | 0.31 µM
8 | CC(=O)c1cnc2ccc(-c3cc(Cl)c(O)c(Cl)c3)nc2c1Nc1cccc(CCN2CCCC2)c1 [Example 19, 1-[6-(3,5-Dichloro-4-hydroxyphenyl)-4-{3-[2-(pyrrolidin-1-yl)ethyl]phenylamino}-1,5-naphthyridin-3-yl]ethanone dihydrochloride] | 7 µM | 0.032 µM | 0.63 µM | 0.59 µM | 0.14 µM | 0.11 µM
